What was measured:
[1] = system: rice (Oryza sativa. L Japonica brand; Nipponbare) seeds; assay: Effective concentration of Imazamox on rice plant body under aseptic culture conditions (seed germination); type: in vivo
Experimental: Based on 1/2 MS solid medium (MS mix (Sigma), sucrose 15.0 g/L, Gelrite (Wako Pure Chemical Industries, Ltd.) 4.0 g/L, pH 5.8), media in 9 stages (0 mg/L, 0.5 mg/L, 1 mg/L, 2 mg/L, 4 mg/L, 5 mg/L, 10 mg/L, 20 mg/L, 30 mg/L) with different Imazamox concentrations were produced. Successively, chaff of rice (Oryza sativa. L Japonica brand; Nipponbare) seeds was removed, the seeds were shaken in 70% ethanol for 1 min, and sterilized by immersing in 2.5% sodium hypochlorite for 20-30 min while allowing for penetration. […]
From the above, it was determined that the effective concentration of Imazamox under the aseptic culture conditions for rice plant body was 0.5 mg/L.

[2] = system: rice callus; assay: Effective concentration of Imazamox on rice callus under aseptic culture conditions; type: cell-based, Oryza sativa; settings: 2N6 medium, 28 days; for proliferation state of the callus: 31.5° C.
Experimental: Based on 2N6 solid medium (mentioned earlier), media in 4 stages (0 mg/L, 30 mg/L, 50 mg/L, 70 mg/L) with different Imazamox concentrations were produced. Callus was induced from the scutellum part of rice seed (mentioned earlier), inoculated to 2N6 solid medium added with Imazamox, cultured at 31.5° C. for 28 days in the dark all day, and the proliferation state of the callus was confirmed.
From the above, it was determined that the effective concentration of Imazamox for rice callus was 70 mg/L.

COCc1cnc(C2=NC(C)(C(C)C)C(=O)N2)c(C(=O)O)c1 (stereo not drawn) [Imazamox]
number of seeds, germination (7 days later) ([1]; Imazamox 0.5 mg/L in 1/2 MS medium, 24 seeds): 0 | germination circumstances ([1]; Imazamox 0.5 mg/L or more, 25° C., 7 days): browning of embryo stem and whitening of coleoptile was confirmed in all seeds | survival rate (%) ([1]; Imazamox 0.5 mg/L, 7 days): 0% | number of seeds, germination (7 days later) ([1]; Imazamox 1 mg/L in 1/2 MS medium, 23 seeds): 0 | survival rate (%) ([1]; Imazamox 1 mg/L, 7 days): 0% | number of seeds, germination (7 days later) ([1]; Imazamox 2 mg/L in 1/2 MS medium, 24 seeds): 0 | survival rate (%) ([1]; Imazamox 2 mg/L, 7 days): 0% | number of seeds, germination (7 days later) ([1]; Imazamox 4 mg/L in 1/2 MS medium, 24 seeds): 0 | survival rate (%) ([1]; Imazamox 4 mg/L, 7 days): 0% | number of seeds, germination (7 days later) ([1]; Imazamox 5 mg/L in 1/2 MS medium, 24 seeds): 0 | survival rate (%) ([1]; Imazamox 5 mg/L, 7 days): 0% | number of seeds, germination (7 days later) ([1]; Imazamox 10 mg/L in 1/2 MS medium, 24 seeds): 0 | survival rate (%) ([1]; Imazamox 10 mg/L, 7 days): 0% | number of seeds, germination (7 days later) ([1]; Imazamox 20 mg/L in 1/2 MS medium, 24 seeds): 0 | survival rate (%) ([1]; Imazamox 20 mg/L, 7 days): 0% | number of seeds, germination (7 days later) ([1]; Imazamox 30 mg/L in 1/2 MS medium, 24 seeds): 0 | survival rate (%) ([1]; Imazamox 30 mg/L, 7 days): 0% | effective concentration of Imazamox for rice plant body ([1]; aseptic culture conditions, 1/2 MS medium, 7 days): 0.5 mg/L | effective concentration of Imazamox for rice callus [2]: 70 mg/L | proliferation state of the callus ([2]; Imazamox 50 mg/L or below): mitotic proliferation of callus was observed | proliferation state of the callus ([2]; Imazamox 70 mg/L): mitotic proliferation was inhibited

Reference: patent US11220693B2, “Method for converting monocot plant genome sequence in which nucleic acid base in targeted DNA sequence is specifically converted, and molecular complex used therein” (NATIONAL UNIVERSITY CORPORATION KOBE UNIVERSITY, priority 2015, dated 2022)
